Experimental data from ChEMBL document CHEMBL1153704, “Imidazo[1,2-a]pyrazine diaryl ureas: inhibitors of the receptor tyrosine kinase EphB4” (Bioorg Med Chem Lett, 2009).

Target: T1, Ephrin type-B receptor 4 (Homo sapiens) (UniProt P54760)
T1 sequence (whole entry): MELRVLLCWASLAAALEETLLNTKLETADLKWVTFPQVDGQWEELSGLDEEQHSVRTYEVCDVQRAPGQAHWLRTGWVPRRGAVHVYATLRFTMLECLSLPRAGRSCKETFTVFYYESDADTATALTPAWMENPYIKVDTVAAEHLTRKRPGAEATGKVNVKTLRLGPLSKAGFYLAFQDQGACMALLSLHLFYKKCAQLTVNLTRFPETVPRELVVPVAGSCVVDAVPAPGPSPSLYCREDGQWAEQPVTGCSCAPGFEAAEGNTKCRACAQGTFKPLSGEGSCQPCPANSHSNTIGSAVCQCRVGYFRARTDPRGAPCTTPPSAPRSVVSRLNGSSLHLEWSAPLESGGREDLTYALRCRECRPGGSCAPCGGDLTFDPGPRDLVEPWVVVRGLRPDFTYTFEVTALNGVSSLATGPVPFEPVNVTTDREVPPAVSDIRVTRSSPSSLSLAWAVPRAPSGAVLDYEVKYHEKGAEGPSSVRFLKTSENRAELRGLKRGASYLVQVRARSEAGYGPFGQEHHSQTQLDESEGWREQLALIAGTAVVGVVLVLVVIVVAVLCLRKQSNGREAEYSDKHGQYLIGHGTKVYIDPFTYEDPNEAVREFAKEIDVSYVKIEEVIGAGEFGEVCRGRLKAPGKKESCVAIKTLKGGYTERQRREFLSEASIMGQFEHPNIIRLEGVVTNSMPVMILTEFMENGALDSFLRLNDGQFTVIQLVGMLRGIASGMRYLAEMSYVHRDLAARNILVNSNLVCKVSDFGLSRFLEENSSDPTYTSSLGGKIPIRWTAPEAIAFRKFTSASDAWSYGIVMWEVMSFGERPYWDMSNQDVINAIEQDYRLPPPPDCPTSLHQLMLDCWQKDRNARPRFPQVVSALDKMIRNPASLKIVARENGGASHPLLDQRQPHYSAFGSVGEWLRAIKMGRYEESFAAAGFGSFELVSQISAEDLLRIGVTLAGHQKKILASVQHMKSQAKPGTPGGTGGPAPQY
Experiment: Inhibition of EphB4 at 1 uM after 1 hr

SMILES | inhibition [%]
COc1ccc(C(F)(F)F)cc1NC(=O)CNc1cccc(-c2cn3ccnc3c(NCc3ccncc3)n2)c1 | 2.9
O=C(Nc1cccc(-c2cn3ccnc3c(NCc3ccncc3)n2)c1)Nc1ccccc1Oc1ccccc1 | 22
O=C(Nc1cccc(F)c1)Nc1cccc(-c2cn3ccnc3c(NCc3ccncc3)n2)c1 | 47
COc1ccccc1NC(=O)Nc1cccc(-c2cn3ccnc3c(NCc3ccncc3)n2)c1 | 54
O=C(Nc1ccccc1)Nc1cccc(-c2cn3ccnc3c(NCc3ccncc3)n2)c1 | 10
O=C(Nc1cccc(-c2cn3ccnc3c(Nc3cccnc3)n2)c1)Nc1cccc(C(F)(F)F)c1 | 1
O=C(Nc1cccc(-c2cn3ccnc3c(NCc3ccncc3)n2)c1)Nc1ccccc1F | 22

Second part, the compound after the results:

inhibition [%] | SMILES
10 | CCc1ccc(NC(=O)Nc2cccc(-c3cn4ccnc4c(NCc4ccncc4)n3)c2)cc1
10 | O=C(Nc1ccc(C(F)(F)F)cc1)Nc1cccc(-c2cn3ccnc3c(NCc3ccncc3)n2)c1
22 | O=C(Nc1ccc(Br)cc1)Nc1cccc(-c2cn3ccnc3c(NCc3ccncc3)n2)c1
41 | O=C(Nc1cccc(-c2cn3ccnc3c(NCc3ccncc3)n2)c1)Nc1ccccc1C(F)(F)F
30 | Cc1ccccc1NC(=O)Nc1cccc(-c2cn3ccnc3c(NCc3ccncc3)n2)c1
63 | CSc1ccccc1NC(=O)Nc1cccc(-c2cn3ccnc3c(NCc3ccncc3)n2)c1
10 | COc1ccc(NC(=O)Nc2cccc(-c3cn4ccnc4c(NCc4ccncc4)n3)c2)cc1

Target: T1, Ephrin type-B receptor 4 (Homo sapiens)
Experiment: Inhibition of EphB4 at 10 uM after 1 hr

inhibition [%] | SMILES
36 | O=C(Nc1cccc(-c2cn3ccnc3c(Nc3ccccc3)n2)c1)Nc1cccc(C(F)(F)F)c1
32 | O=C(Nc1cccc(-c2cn3ccnc3c(Nc3ccncc3)n2)c1)Nc1cccc(C(F)(F)F)c1
32 | O=C(Nc1cccc(-c2cn3ccnc3c(NCc3ccccn3)n2)c1)Nc1cccc(C(F)(F)F)c1

Target: T2, Ephrin type-B receptor 4 (Homo sapiens, UniProt P54760)
T2 sequence (P54760 whole entry): T1 sequence (whole entry)
Experiment: Inhibition of EphB4 after 1 hr

SMILES | IC50 [nM]
Cc1cccc(NC(=O)Nc2cccc(-c3cn4ccnc4c(NCc4ccncc4)n3)c2)c1 | 300
O=C(Nc1cccc(-c2cn3ccnc3c(NCc3ccncc3)n2)c1)Nc1cccc(Cl)c1Cl | 5700
O=C(Nc1cccc(-c2cn3ccnc3c(NCc3ccncc3)n2)c1)Nc1cc(Cl)ccc1Cl | 101
O=C(Nc1cccc(-c2cn3ccnc3c(NCc3ccncc3)n2)c1)Nc1ccc(Cl)c(C(F)(F)F)c1 | 1200
O=C(Nc1cccc(-c2cn3ccnc3c(NCc3ccncc3)n2)c1)c1cccc(C(F)(F)F)c1 | 744
O=C(Nc1ccc(F)cc1)Nc1cccc(-c2cn3ccnc3c(NCc3ccncc3)n2)c1 | 7400
O=C(Nc1cccc(-c2cn3ccnc3c(NCc3ccncc3)n2)c1)Nc1cc(Cl)ccc1Oc1ccccc1 | 138
O=C(Nc1cccc(Br)c1)Nc1cccc(-c2cn3ccnc3c(NCc3ccncc3)n2)c1 | 213
Cc1ccc(NC(=O)Nc2cccc(-c3cn4ccnc4c(NCc4ccncc4)n3)c2)cc1 | 7900
CNc1nc(-c2cccc(NC(=O)Nc3cc(Cl)ccc3OC)c2)cn2ccnc12 | 5700
O=C(Nc1cccc(-c2cn3ccnc3c(NCc3ccncc3)n2)c1)Nc1cc(Cl)c(Cl)cc1Cl | 517
O=C(Nc1cccc(-c2cn3ccnc3c(OCc3ccncc3)n2)c1)Nc1cccc(C(F)(F)F)c1 | 105
COc1cc(OC)c(C(F)(F)F)cc1NC(=O)Nc1cccc(-c2cn3ccnc3c(NCc3ccncc3)n2)c1 | 518
Cc1ccc(NC(=O)Nc2cccc(-c3cn4ccnc4c(NCc4ccncc4)n3)c2)cc1C(F)(F)F | 810
O=C(Nc1cccc(-c2cn3ccnc3c(NCc3cccnc3)n2)c1)Nc1cccc(C(F)(F)F)c1 | 7800
O=C(Nc1cccc(-c2cn3ccnc3c(NCCc3ccncc3)n2)c1)Nc1cccc(C(F)(F)F)c1 | 158
O=C(Nc1cccc(-c2cn3ccnc3c(NCc3ccncc3)n2)c1)Nc1ccc(F)c(C(F)(F)F)c1 | 850
O=C(Nc1cccc(-c2cn3ccnc3c(NCc3ccncc3)n2)c1)Nc1ccc(Cl)c(Cl)c1 | 2500

SMILES | IC50 [nM]
O=C(Nc1cccc(-c2cn3ccnc3c(NCc3ccncc3)n2)c1)Nc1ccccc1Cl | 2900
O=C(Nc1cccc(Oc2ccccc2)c1)Nc1cccc(-c2cn3ccnc3c(NCc3ccncc3)n2)c1 | 10500
COc1cccc(NC(=O)Nc2cccc(-c3cn4ccnc4c(NCc4ccncc4)n3)c2)c1 | 1700
COc1ccc(C#N)cc1NC(=O)Nc1cccc(-c2cn3ccnc3c(NCc3ccncc3)n2)c1 | 125
O=C(Nc1cccc(-c2cn3ccnc3c(NCc3ccncc3)n2)c1)Nc1ccccc1Br | 1700
COc1ccc(C)cc1NC(=O)Nc1cccc(-c2cn3ccnc3c(NCc3ccncc3)n2)c1 | 78
O=C(Nc1cccc(-c2cn3ccnc3c(NCc3ccc(C(=O)O)cc3)n2)c1)Nc1cccc(C(F)(F)F)c1 | 5300
O=C(Nc1ccc(Cl)cc1)Nc1cccc(-c2cn3ccnc3c(NCc3ccncc3)n2)c1 | 4600
CN(Cc1ccncc1)c1nc(-c2cccc(NC(=O)Nc3cccc(C(F)(F)F)c3)c2)cn2ccnc12 | 69
O=C(Nc1cccc(-c2cn3ccnc3c(NCc3ccncc3)n2)c1)Nc1ccc(Cl)cc1Cl | 1900
COc1cc(OC)c(NC(=O)Nc2cccc(-c3cn4ccnc4c(NCc4ccncc4)n3)c2)cc1Cl | 402
COc1ccc(Cl)cc1NC(=O)Nc1cccc(-c2cn3ccnc3c(N)n2)c1 | 5400
O=C(Nc1cccc(-c2cn3ccnc3c(NCc3ccncc3)n2)c1)Nc1cc(C(F)(F)F)ccc1Cl | 66
O=C(Nc1cccc(-c2cn3ccnc3c(NCc3ccccc3)n2)c1)Nc1cccc(C(F)(F)F)c1 | 50000
Cc1ccc(Cl)cc1NC(=O)Nc1cccc(-c2cn3ccnc3c(NCc3ccncc3)n2)c1 | 160
O=C(Nc1cccc(-c2cn3ccnc3c(NCC3CCNCC3)n2)c1)Nc1cccc(C(F)(F)F)c1 | 50000
COc1cc(OC)c(NC(=O)Nc2cccc(-c3cn4ccnc4c(NCc4ccncc4)n3)c2)cc1Br | 206

Next, values leading:

IC50 [nM] | SMILES
50000 | O=C(Nc1ccc(-c2cn3ccnc3c(NCc3ccncc3)n2)cc1)Nc1cccc(C(F)(F)F)c1
211 | CCOc1cc(OCC)c(C(F)(F)F)cc1NC(=O)Nc1cccc(-c2cn3ccnc3c(NCc3ccncc3)n2)c1
50000 | O=S(=O)(Nc1cccc(-c2cn3ccnc3c(NCc3ccncc3)n2)c1)c1cccc(C(F)(F)F)c1
1200 | CSc1cccc(NC(=O)Nc2cccc(-c3cn4ccnc4c(NCc4ccncc4)n3)c2)c1
1000 | O=C(Nc1cccc(-c2cn3ccnc3c(NCc3ccncc3)n2)c1)Nc1c(Cl)cccc1Cl
1800 | O=C(Nc1cc(Cl)cc(Cl)c1)Nc1cccc(-c2cn3ccnc3c(NCc3ccncc3)n2)c1
165 | O=C(Nc1cccc(Cl)c1)Nc1cccc(-c2cn3ccnc3c(NCc3ccncc3)n2)c1
938 | Cc1ccc(C)c(NC(=O)Nc2cccc(-c3cn4ccnc4c(NCc4ccncc4)n3)c2)c1
2400 | O=C(Cc1cccc(C(F)(F)F)c1)Nc1cccc(-c2cn3ccnc3c(NCc3ccncc3)n2)c1
6800 | O=C(NCc1cccc(-c2cn3ccnc3c(NCc3ccncc3)n2)c1)Nc1cccc(C(F)(F)F)c1
2100 | O=C(NCc1cccc(C(F)(F)F)c1)Nc1cccc(-c2cn3ccnc3c(NCc3ccncc3)n2)c1
11100 | O=C(NCc1cccc(C(F)(F)F)c1)c1cccc(-c2cn3ccnc3c(NCc3ccncc3)n2)c1
37 | O=C(Nc1cccc(-c2cn3ccnc3c(NCc3ccncc3)n2)c1)Nc1cc(C(F)(F)F)ccc1O
1900 | N#Cc1cccc(NC(=O)Nc2cccc(-c3cn4ccnc4c(NCc4ccncc4)n3)c2)c1
77 | COc1ccc(Cl)cc1NC(=O)Nc1cccc(-c2cn3ccnc3c(NCc3ccncc3)n2)c1

Target: T3, Angiopoietin-1 receptor (Homo sapiens, UniProt Q02763)
T3 sequence (Q02763 whole entry): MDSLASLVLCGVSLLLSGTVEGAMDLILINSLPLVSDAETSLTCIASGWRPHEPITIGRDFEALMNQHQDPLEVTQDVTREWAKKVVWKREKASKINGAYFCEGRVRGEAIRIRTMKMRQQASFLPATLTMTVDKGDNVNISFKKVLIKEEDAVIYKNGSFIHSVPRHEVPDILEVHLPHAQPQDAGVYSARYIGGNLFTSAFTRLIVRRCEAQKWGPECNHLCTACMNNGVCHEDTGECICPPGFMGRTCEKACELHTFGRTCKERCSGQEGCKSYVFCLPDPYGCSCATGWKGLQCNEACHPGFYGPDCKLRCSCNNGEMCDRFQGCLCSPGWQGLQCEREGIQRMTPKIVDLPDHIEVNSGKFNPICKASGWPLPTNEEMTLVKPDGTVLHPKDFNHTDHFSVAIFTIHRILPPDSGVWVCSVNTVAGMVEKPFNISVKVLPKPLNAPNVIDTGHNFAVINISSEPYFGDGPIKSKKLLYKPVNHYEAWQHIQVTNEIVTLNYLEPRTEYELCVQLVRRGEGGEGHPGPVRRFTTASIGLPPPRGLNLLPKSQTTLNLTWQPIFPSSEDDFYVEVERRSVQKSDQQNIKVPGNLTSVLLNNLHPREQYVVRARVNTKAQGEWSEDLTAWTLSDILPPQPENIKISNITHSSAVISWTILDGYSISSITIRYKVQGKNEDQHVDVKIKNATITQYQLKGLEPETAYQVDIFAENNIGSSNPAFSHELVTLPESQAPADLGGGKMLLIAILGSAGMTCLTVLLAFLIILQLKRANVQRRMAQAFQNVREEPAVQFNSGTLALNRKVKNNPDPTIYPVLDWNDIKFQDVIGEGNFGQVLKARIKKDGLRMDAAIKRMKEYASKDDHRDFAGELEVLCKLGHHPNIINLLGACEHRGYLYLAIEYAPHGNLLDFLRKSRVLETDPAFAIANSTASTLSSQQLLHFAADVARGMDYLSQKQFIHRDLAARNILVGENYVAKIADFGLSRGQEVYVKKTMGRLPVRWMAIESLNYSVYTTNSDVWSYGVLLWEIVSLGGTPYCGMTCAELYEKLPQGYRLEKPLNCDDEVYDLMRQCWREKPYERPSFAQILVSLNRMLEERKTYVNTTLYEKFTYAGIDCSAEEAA
Experiment: Inhibition of Tie2 after 1 hr

IC50 [nM] | SMILES
75 | COc1ccc(Br)cc1NC(=O)Nc1cccc(-c2cn3ccnc3c(NCc3ccncc3)n2)c1
37 | O=C(Nc1cccc(-c2cn3ccnc3c(NCc3ccncc3)n2)c1)Nc1cc(C(F)(F)F)ccc1F
33 | COc1ccc(C(F)(F)F)cc1NC(=O)Nc1cccc(-c2cn3ccnc3c(NCc3ccncc3)n2)c1

Target: T3, Angiopoietin-1 receptor
Experiment: Inhibition of Tie2 autophosphorylation by cell based assay

IC50 [nM] | SMILES
250 | COc1ccc(Br)cc1NC(=O)Nc1cccc(-c2cn3ccnc3c(NCc3ccncc3)n2)c1
100 | O=C(Nc1cccc(-c2cn3ccnc3c(NCc3ccncc3)n2)c1)Nc1cc(C(F)(F)F)ccc1F
50 | COc1ccc(C(F)(F)F)cc1NC(=O)Nc1cccc(-c2cn3ccnc3c(NCc3ccncc3)n2)c1
